The record followed here is US5391540A, “Substituted pyridine compounds” (Rohm and Haas Company, priority 1993, dated 1995).

Type in all cases: in vivo
The subject of one assay is Dobr. Description: plant injury after spraying emerged plants (Table D). An excerpt: (§1) Topsoil (silt loam) is sieved through a screen having 1.27 cm openings. In some of the tests the soil was mixed with fertilizer (1225 g/cu. m of 12/5/9 containing isobutylidene diurea), while in other tests the fertilizer was omitted. This mixture is steam sterilized and then placed in aluminum pans 6.985 cm deep having ten holes in the bottom each 0.635 cm in diameter. The soil mixture is compacted to a depth of 1.27 cm. from the top of the pan. A predetermined number of seeds of each of several dicotyledonous and monocotyledonous annual plant species and/or vegetative propagules for the perennial plant species are placed on the soil and pressed into the soil surface. The seeds and/or vegetative propagules are covered with 1.27 cm of a mixture of 50% topsoil and 50% of a mixture of Canadian sphagnum peat moss, vermiculite and a wetting agent. The pans are then placed on a capillary mat on a greenhouse bench and subirrigated as needed. After the plants reach the desired stage (9 to 14 days, 1 to 3 true leaf stage), each pan (except the control pans) is removed to a spraying chamber and sprayed by means of an atomizer, operating at a spray pressure of 170.3 kPa ([…]) at the application rates noted in Table D. In the spray solution is an amount of an emulsifying agent mixture (35% butylamine salt of dodecylbenzenesulfonic acid and 65% tall oil condensed with ethylene oxide in the ratio of 11 mols of ethylene oxide/mol of tall oil) to give a spray solution or suspension. The spray solution or suspension contains a sufficient amount of the candidate chemical in order to give application rates of the active ingredient corresponding to those shown in Table D below while applying a total amount of solution or suspension equivalent to 1870 L/Ha (200 gallons/acre). The pans are returned to the greenhouse and watered as before and the injury to the plants as compared to the control pans is observed at approximately 10-14 days (usually 11 days).
(§2) In the following Table D the legends used to identify the plant species are the same as those used in the preceding Table B.

The subject of a further assay is Wibw. The assay is described as above. More on the design: scale not given here. The method, boiled down:
(§3)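 Seeds or perennial propagules were pressed onto steam-sterilized sieved silt loam topsoil and covered with 1.27 cm of a 50:50 topsoil and peat moss/vermiculite/wetting agent mix. Pans were kept on a greenhouse bench over capillary mat and subirrigated as needed.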

A further assay relates to Hese. The assay is described as above. More on the design: scale not given here. In a few lines:
as §3

Another assay concerns Vele. Described as above. More on the design: scale not given here. In a few lines: as §3
Another assay concerns Rape. The description is as above. More on the design: scale not given here.
From the text: as §1, §2

The next assay has as its system Cotz. Described as above. On the set-up: scale not given here.
From the text: as §1, §2

The next assay relates to Seedling Johnsongrass. Description: Pre-emergent herbicidal activity (Table A). To be noted: Sorghum halepense, pre-emergence, Sejg, 11.2 kg/ha, 10-14 days, read-out: herbicidal rating (% inhibition). The method, boiled down:
(§4)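 Seeds were sown on compacted topsoil and covered with soil into which test compound (in acetone or water carrier) had been mixed at 11.2 kg/ha. Pans were kept watered on a greenhouse bench, and percent inhibition was scored as a rating about 10-14 days (usually 11) after treatment.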

A further assay relates to Annual Bluegrass. Description: Pre-emergent herbicidal activity (Table A). To be noted: pre-emergence, Anbg, 11.2 kg/ha, 10-14 days, read-out: herbicidal rating (% inhibition). In a few lines: as §4
The subject of a further assay is Wild Buckwheat. Description: Pre-emergent herbicidal activity (Table A). The note with it: Fallopia convolvulus, pre-emergence, Wibw, 11.2 kg/ha, 10-14 days, read-out: herbicidal rating (% inhibition). The method, boiled down:
as §4

The subject of a further assay is Indian Mustard. As to the kind of experiment: Pre-emergent herbicidal activity (Table A). To be noted: Brassica juncea, pre-emergence, Inmu, 11.2 kg/ha, 10-14 days, read-out: herbicidal rating (% inhibition). The method, boiled down:
as §4

Usually inhibition stands for the drop in the measured response relative to a control, in per cent.

For `COC(=O)c1c(OC)nc(C(F)(F)Cl)c(C(=O)OC)c1CC(C)C` [Compound 30, 3,5-pyridinedicarboxylic acid, 2-(chlorodifluoromethyl)-6-methoxy-4-(2-methylpropyl)-, dimethyl ester], the “plant injury rating, Dobr” value in the assay with Dobr (0.5605 kg/ha), in the assay on Dobr (1.1210 kg/ha), in the assay with Dobr (2.8025 kg/ha), in the assay with Dobr (5.6050 kg/ha), in the assay with Dobr (8.4075 kg/ha) and with Dobr (11.2100 kg/ha) was 0 throughout. The “plant injury rating, Wibw” value in the assay with Wibw (0.5605 kg/ha) is reported as 1; in the assay on Wibw (1.1210 kg/ha), 1; in the assay on Wibw (2.8025 kg/ha), 1; with Wibw (5.6050 kg/ha), 1; with Wibw (8.4075 kg/ha) it was 1; in the assay with Wibw (11.2100 kg/ha), 2. Moreover, the “plant injury rating, Hese” value with Hese (0.5605 kg/ha) turned out to be 1; with Hese (1.1210 kg/ha) it was 1; with Hese (2.8025 kg/ha), 1; with Hese (5.6050 kg/ha), 1; in the assay with Hese (8.4075 kg/ha), 2; in the assay on Hese (11.2100 kg/ha), 1. The “plant injury rating, Vele” value is 1 with Vele (0.5605 kg/ha); 1 in the assay with Vele (1.1210 kg/ha); 1 in the assay on Vele (2.8025 kg/ha); 1 with Vele (5.6050 kg/ha); 2 with Vele (8.4075 kg/ha); 1 in the assay with Vele (11.2100 kg/ha).
Regarding `COC(=O)c1c(OC)nc(C(F)(F)F)c(N=CSC)c1CC(C)C` [Compound 77, 3-pyridinecarboxylic acid, 2-methoxy-4-(2-methylpropyl)-5-[[(methylthio)methylene]amino]-6-(trifluoromethyl)-, methyl ester], the “plant injury rating, Dobr” value in the assay with Dobr (1.1210 kg/ha), in the assay with Dobr (2.8025 kg/ha) and in the assay on Dobr (11.2100 kg/ha) was 0 throughout.
As for `COC(=O)c1c(OC)nc(C(F)(F)F)c(C(=O)Cl)c1CC1CC1` [Compound 113, 3-pyridinecarboxylic acid, 5-(chlorocarbonyl)-4-(cyclopropylmethyl)-2-methoxy-6-(trifluoromethyl)-, methyl ester], the “plant injury rating, Dobr” value in the assay on Dobr (0.2803 kg/ha), in the assay on Dobr (1.1210 kg/ha) and with Dobr (5.6050 kg/ha) was 0 in each case. In addition, the “plant injury rating, Rape” value in the assay on Rape (0.2803 kg/ha) came to 0; with Rape (1.1210 kg/ha), 0; in the assay with Rape (5.6050 kg/ha) it was 1. The “plant injury rating, Cotz” value in the assay on Cotz (0.2803 kg/ha), in the assay with Cotz (1.1210 kg/ha) and in the assay with Cotz (5.6050 kg/ha) was 0 throughout. Besides, the inhibition at 11200 g/ha in the assay with Seedling Johnsongrass lay in the range of 75 to 100%; with Annual Bluegrass, 75 to 100%; with Wild Buckwheat it was 25 to 49%; in the assay on Indian Mustard it was 0 to 24%. In addition, the entries for the “plant injury rating, Wibw” value with Wibw (0.2803 kg/ha), in the assay with Wibw (1.1210 kg/ha) and in the assay with Wibw (5.6050 kg/ha) were 0, 0 and 1, respectively. Further, the “plant injury rating, Hese” value in the assay with Hese (0.2803 kg/ha) is reported as 0; with Hese (1.1210 kg/ha) it was 0; in the assay on Hese (5.6050 kg/ha) it was 1. The “plant injury rating, Vele” value in the assay on Vele (0.2803 kg/ha) stood at 0; with Vele (1.1210 kg/ha), 0; with Vele (5.6050 kg/ha) it was 1.
For the molecule `COC(=O)c1c(OC)nc(C(F)(F)F)c(C(=O)n2cccn2)c1CC1CC1` [Compound 116, 3-pyridinecarboxylic acid, 4-(cyclopropylmethyl)-2-methoxy-5-(1H-pyrazo1-1-ylcarbonyl)-6-(trifluoromethyl)-, methyl ester], the “plant injury rating, Dobr” value in the assay on Dobr (0.0701 kg/ha), in the assay on Dobr (0.2803 kg/ha), with Dobr (1.1210 kg/ha) and with Dobr (5.6050 kg/ha) was 0 throughout. For the same molecule, the “plant injury rating, Rape” value in the assay with Rape (0.0701 kg/ha) came to 1; with Rape (0.2803 kg/ha), 2; in the assay on Rape (1.1210 kg/ha), 3; in the assay with Rape (5.6050 kg/ha), 3. Further, the “plant injury rating, Cotz” value in the assay on Cotz (0.0701 kg/ha) was found to be 0; with Cotz (0.2803 kg/ha), 0; in the assay with Cotz (1.1210 kg/ha), 1; in the assay with Cotz (5.6050 kg/ha), 1. The inhibition at 11200 g/ha in the assay on Seedling Johnsongrass, in the assay with Annual Bluegrass, in the assay on Wild Buckwheat and with Indian Mustard was 75 to 100% each time. For the same molecule, the “plant injury rating, Wibw” value in the assay with Wibw (0.0701 kg/ha) is recorded as 1; in the assay with Wibw (0.2803 kg/ha), 1; in the assay on Wibw (1.1210 kg/ha), 2; in the assay on Wibw (5.6050 kg/ha), 2. Further, the “plant injury rating, Hese” value with Hese (0.0701 kg/ha) is reported as 1; in the assay on Hese (0.2803 kg/ha), 1; in the assay on Hese (1.1210 kg/ha), 2; in the assay on Hese (5.6050 kg/ha) it was 2. For the same molecule, the “plant injury rating, Vele” value is 1 in the assay with Vele (0.0701 kg/ha), 2 with Vele (0.2803 kg/ha), 3 in the assay on Vele (1.1210 kg/ha) and 2 in the assay with Vele (5.6050 kg/ha).
Take `COC(=O)c1c(OC)nc(C(F)(F)F)c(C(=O)SC)c1C1CCC1` [Compound 137, 3-pyridinecarboxylic acid, 4-cyclobuty1-2-methoxy-5-[(methylthio)carbonyl]-6-(trifluoromethyl)-, methyl ester]: the “plant injury rating, Dobr” value in the assay on Dobr (0.2803 kg/ha) amounted to 0; in the assay with Dobr (1.1210 kg/ha) it was 1; with Dobr (5.6050 kg/ha) it was 1. Also, the “plant injury rating, Rape” value in the assay with Rape (0.2803 kg/ha), in the assay with Rape (1.1210 kg/ha) and in the assay with Rape (5.6050 kg/ha) was 3 each time. Besides, the “plant injury rating, Cotz” value in the assay on Cotz (0.2803 kg/ha) was 1; in the assay on Cotz (1.1210 kg/ha) it was 2; in the assay with Cotz (5.6050 kg/ha) it was 2. In addition, the inhibition at 11200 g/ha in the assay with Seedling Johnsongrass, in the assay with Annual Bluegrass, in the assay with Wild Buckwheat and in the assay with Indian Mustard was 75 to 100% in each case. For the same molecule, the results for the “plant injury rating, Wibw” value in the assay with Wibw (0.2803 kg/ha), with Wibw (1.1210 kg/ha) and in the assay on Wibw (5.6050 kg/ha) were 0, 3 and 2, respectively. Also, the “plant injury rating, Hese” value in the assay on Hese (0.2803 kg/ha) is 1; in the assay on Hese (1.1210 kg/ha) it was 3; in the assay with Hese (5.6050 kg/ha), 3. Also, the “plant injury rating, Vele” value in the assay on Vele (0.2803 kg/ha) is 3; with Vele (1.1210 kg/ha) it was 3; in the assay on Vele (5.6050 kg/ha), 2.
`COC(=O)c1c(OC)nc(C(F)(F)F)c(C(=O)n2ccc(F)n2)c1C1CCC1` [Compound 140, 3-pyridinecarboxylic acid, 4-cyclobuty1-5-[(3-fluoro-1H-pyrazo1-1-yl)carbonyl]-2-methoxy-6-(trifluoromethyl)-, methyl ester]: the “plant injury rating, Dobr” value in the assay on Dobr (0.2803 kg/ha), in the assay with Dobr (1.1210 kg/ha) and with Dobr (5.6050 kg/ha) was 0 throughout. Moreover, the “plant injury rating, Rape” value in the assay on Rape (0.2803 kg/ha), with Rape (1.1210 kg/ha) and with Rape (5.6050 kg/ha) was 3 in each case. Also, the “plant injury rating, Cotz” value with Cotz (1.1210 kg/ha) and in the assay on Cotz (5.6050 kg/ha) was 1 throughout. In addition, the inhibition at 11200 g/ha in the assay with Seedling Johnsongrass, in the assay on Annual Bluegrass, with Wild Buckwheat and in the assay on Indian Mustard was 75 to 100% each time. Further, the results for the “plant injury rating, Wibw” value with Wibw (0.2803 kg/ha) and in the assay with Wibw (5.6050 kg/ha) were 0 and 1, respectively. In addition, the “plant injury rating, Hese” value with Hese (0.2803 kg/ha), in the assay with Hese (1.1210 kg/ha) and in the assay on Hese (5.6050 kg/ha) was 3 each time. Also, the “plant injury rating, Vele” value with Vele (0.2803 kg/ha) was 3; in the assay on Vele (1.1210 kg/ha) it was 2; in the assay on Vele (5.6050 kg/ha), 2.
